Source: patent US20060063759A1, “Tricyclic steroid hormone nuclear receptor modulators” (priority 2002, published 2006)

Columns and labels:
[1] = molecular target: T1, human MR (Homo sapiens, UniProt P08235); assay: Mineralocorticoid Receptor Binding Assay ([3H]-aldosterone); settings: [3H]-aldosterone binding, human MR expressed in Sf9 cells; read-out: MR Ki
T1 construct: The full length human MR gene is cloned from a human kidney or human brain cDNA library; His tag from the pAcHLT vector (own knowledge); made in house; host or cells: Sf9 insect cells (baculovirus, pAcHLT transfer vector)
T1 sequence (P08235 1-984): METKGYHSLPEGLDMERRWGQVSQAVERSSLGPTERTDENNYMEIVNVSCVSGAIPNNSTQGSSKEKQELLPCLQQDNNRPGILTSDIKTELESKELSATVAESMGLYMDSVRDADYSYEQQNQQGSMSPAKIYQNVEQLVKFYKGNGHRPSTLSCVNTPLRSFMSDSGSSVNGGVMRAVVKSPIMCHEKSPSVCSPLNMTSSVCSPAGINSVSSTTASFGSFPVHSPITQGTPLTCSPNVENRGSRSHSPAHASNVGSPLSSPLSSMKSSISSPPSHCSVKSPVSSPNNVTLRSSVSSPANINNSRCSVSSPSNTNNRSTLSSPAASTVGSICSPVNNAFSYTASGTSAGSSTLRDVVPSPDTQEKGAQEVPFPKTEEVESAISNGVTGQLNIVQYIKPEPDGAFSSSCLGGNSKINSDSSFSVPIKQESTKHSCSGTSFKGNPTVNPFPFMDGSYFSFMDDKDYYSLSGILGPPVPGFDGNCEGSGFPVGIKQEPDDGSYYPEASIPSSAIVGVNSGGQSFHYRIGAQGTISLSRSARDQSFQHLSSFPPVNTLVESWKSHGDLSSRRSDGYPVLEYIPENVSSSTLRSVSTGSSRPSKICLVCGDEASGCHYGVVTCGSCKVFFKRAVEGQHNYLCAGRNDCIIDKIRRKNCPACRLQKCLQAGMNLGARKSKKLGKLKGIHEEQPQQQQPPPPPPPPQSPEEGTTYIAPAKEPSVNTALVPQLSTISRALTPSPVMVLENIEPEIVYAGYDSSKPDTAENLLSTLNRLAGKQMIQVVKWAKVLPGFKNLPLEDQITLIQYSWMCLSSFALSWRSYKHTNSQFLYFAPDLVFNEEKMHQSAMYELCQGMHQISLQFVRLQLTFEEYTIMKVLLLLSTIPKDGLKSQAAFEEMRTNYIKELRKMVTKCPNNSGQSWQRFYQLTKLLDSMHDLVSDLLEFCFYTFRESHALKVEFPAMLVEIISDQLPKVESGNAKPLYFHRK
In short: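 Lysate supernatant of Sf9 cells expressing full-length human MR (20-25 μg protein) was incubated with 0.5 nM [3H]-aldosterone and test compound in molybdate/Tris/phosphate/glycerol buffer, pH 7.5, ~16 h at 4 °C. Bound ligand was filtered and counted by scintillation; IC50 is the concentration halving [3H]-aldosterone binding.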

[2] = molecular target: T2, glucocorticoid receptor (Homo sapiens, UniProt P04150); assay: Glucocorticoid Receptor Binding Assay ([3H]-dexamethasone, A549 cell extract); settings: [3H]-dexamethasone binding, read-out: GR Ki
T2 construct: containing 50-200 ug of A549 cell extract and 1.86 nM [^3H]-dexamethasone; host or cells: A549 human lung epithelial cells (sonicated cell extract)
T2 sequence (P04150 1-777): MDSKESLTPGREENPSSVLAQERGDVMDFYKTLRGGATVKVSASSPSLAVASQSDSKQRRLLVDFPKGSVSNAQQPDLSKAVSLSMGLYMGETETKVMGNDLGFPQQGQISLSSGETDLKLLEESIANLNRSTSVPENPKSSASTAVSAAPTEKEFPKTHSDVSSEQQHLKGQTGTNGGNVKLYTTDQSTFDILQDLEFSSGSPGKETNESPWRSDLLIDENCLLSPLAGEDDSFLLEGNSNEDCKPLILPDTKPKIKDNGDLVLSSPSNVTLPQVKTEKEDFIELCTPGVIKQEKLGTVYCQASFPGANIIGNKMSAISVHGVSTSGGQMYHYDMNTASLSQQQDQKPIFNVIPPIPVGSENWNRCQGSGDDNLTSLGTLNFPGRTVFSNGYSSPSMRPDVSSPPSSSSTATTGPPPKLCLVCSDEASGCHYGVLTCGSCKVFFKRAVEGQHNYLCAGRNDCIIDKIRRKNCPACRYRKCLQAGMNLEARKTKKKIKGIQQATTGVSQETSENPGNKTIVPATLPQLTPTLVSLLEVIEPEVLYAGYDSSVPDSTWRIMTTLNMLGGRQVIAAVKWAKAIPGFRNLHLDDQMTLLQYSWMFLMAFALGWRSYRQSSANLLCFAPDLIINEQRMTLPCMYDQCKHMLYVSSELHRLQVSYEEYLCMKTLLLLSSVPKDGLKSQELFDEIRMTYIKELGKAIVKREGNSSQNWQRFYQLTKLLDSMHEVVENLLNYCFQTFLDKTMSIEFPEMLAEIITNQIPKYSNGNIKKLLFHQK
In short: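 A549 cell extract (50–200 ug) incubated with 1.86 nM [3H]-dexamethasone and test compound for 16 h at 4 °C in Tris-HCl pH 7.2 buffer with glycerol and molybdate. Unbound radioligand removed by dextran-coated charcoal, then supernatant bound counts measured by scintillation.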

Structure (SMILES): COc1ccc2c(c1)SCc1ccccc1/C2=C\c1cccc(NS(C)(=O)=O)c1 [Example 694]
- Ki [1]: < 500 nM
- Ki [2]: < 500 nM

Structure (SMILES): Cc1cccc2c1SCc1ccccc1C2=Cc1cccc(NS(C)(=O)=O)c1 [Example 695]
- Ki [1]: < 500 nM
- Ki [2]: < 500 nM

Structure (SMILES): COc1cccc2c1/C(=C\c1cccc(NS(C)(=O)=O)c1)c1ccccc1SC2 [Example 696]
- Ki [1]: < 500 nM
- Ki [2]: < 500 nM

Structure (SMILES): O=S(=O)(Nc1cccc(/C=C2\c3ccccc3CSc3ccccc32)c1)C1CC1 [Example 698]
- Ki [1]: < 1000 nM
- Ki [2]: < 500 nM

Structure (SMILES): OCc1cccc(/C=C2\c3ccccc3CSc3ccccc32)c1 [Example 699]
- Ki [1]: < 500 nM
- Ki [2]: < 500 nM

Structure (SMILES): O=S(=O)(Cc1cccc(/C=C2\c3ccccc3CSc3ccccc32)c1)c1cccc(C(F)(F)F)c1 [Example 700]
- Ki [1]: < 500 nM
- Ki [2]: < 500 nM

Structure (SMILES): C(=C1c2ccccc2CSc2ccccc21)c1ccccc1 [Example 701]
- Ki [1]: < 500 nM
- Ki [2]: < 500 nM

Structure (SMILES): CS(=O)(=O)Nc1cccc(C=C2c3ccc(Cl)cc3CSc3cc(Cl)ccc32)c1 [Example 702]
- Ki [1]: < 500 nM
- Ki [2]: < 10000 nM

Structure (SMILES): COc1cccc2c1/C(=C/c1cccc(NS(C)(=O)=O)c1)c1ccccc1OC2 [Example 703]
- Ki [1]: < 500 nM
- Ki [2]: < 500 nM

Structure (SMILES): COc1cccc2c1/C(=C\c1cccc(NS(C)(=O)=O)c1)c1ccccc1OC2 [Example 704]
- Ki [1]: < 500 nM
- Ki [2]: < 500 nM

Structure (SMILES): COc1ccc2c(c1)COc1ccccc1/C2=C\c1cccc(NS(C)(=O)=O)c1 [Example 705]
- Ki [1]: < 500 nM
- Ki [2]: < 500 nM

Structure (SMILES): COc1ccc2c(c1)OCc1ccccc1/C2=C/c1cccc(NS(C)(=O)=O)c1 [Example 706]
- Ki [1]: < 500 nM
- Ki [2]: < 500 nM

Structure (SMILES): COc1cccc2c1COc1ccccc1/C2=C\c1cccc(NS(C)(=O)=O)c1 [Example 707]
- Ki [1]: < 500 nM
- Ki [2]: < 500 nM

Structure (SMILES): COc1cccc2c1COc1ccccc1/C2=C/c1cccc(NS(C)(=O)=O)c1 [Example 708]
- Ki [1]: < 500 nM
- Ki [2]: < 500 nM

Structure (SMILES): O=c1[nH]c2cc(/C=C3/c4ccccc4COc4cc(F)ccc43)ccc2n1C1CC1 [Example 709]
- Ki [1]: < 500 nM
- Ki [2]: < 500 nM

Structure (SMILES): CC(C)Cn1c(=O)[nH]c2cc(/C=C3\c4ccccc4COc4cc(F)ccc43)ccc21 [Example 710]
- Ki [1]: < 500 nM
- Ki [2]: < 500 nM

Structure (SMILES): CC(C)Cn1c(=O)[nH]c2cc(/C=C3/c4ccccc4COc4cc(F)ccc43)ccc21 [Example 711]
- Ki [1]: < 500 nM
- Ki [2]: < 1000 nM

Structure (SMILES): O=c1[nH]c2cc(/C=C3/c4ccccc4COc4cc(F)ccc43)ccc2n1CCN1CCOCC1 [Example 712]
- Ki [1]: < 500 nM
- Ki [2]: < 500 nM

Structure (SMILES): O=c1[nH]c2ccc(C=C3c4ccccc4OCc4c(F)cccc43)cc2[nH]1 [Example 713]
- Ki [1]: < 500 nM
- Ki [2]: < 500 nM

Structure (SMILES): O=c1[nH]c2ccc(C=C3c4cc(F)ccc4COc4ccccc43)cc2[nH]1 [Example 714]
- Ki [1]: < 500 nM
- Ki [2]: < 10000 nM

Structure (SMILES): O=c1[nH]c2ccc(C=C3c4cc(Cl)ccc4COc4ccccc43)cc2[nH]1 [Example 715]
- Ki [1]: < 500 nM
- Ki [2]: < 1000 nM

Structure (SMILES): O=c1[nH]c2cc(/C=C3/c4ccc(F)cc4OCc4ncsc43)ccc2n1CCN1CCOCC1 [Example 718]
- Ki [1]: < 500 nM
- Ki [2]: < 10000 nM

Structure (SMILES): O=S(=O)(CC(F)(F)F)Nc1cccc(C=C2c3ccc(Cl)cc3CSc3cc(Cl)ccc32)c1 [Example 721]
- Ki [1]: < 500 nM
- Ki [2]: < 500 nM

Structure (SMILES): CS(=O)(=O)NCc1cccc(/C=C2\c3ccccc3CSc3ccccc32)c1 [Example 722]
- Ki [1]: < 500 nM
- Ki [2]: < 500 nM

Structure (SMILES): CS(=O)(=O)Nc1cccc(/C=C2\c3ccc(F)cc3COc3ccccc32)c1 [Example 723]
- Ki [1]: < 500 nM
- Ki [2]: < 500 nM

Structure (SMILES): CS(=O)(=O)Nc1cccc(/C=C2/c3ccc(F)cc3COc3ccccc32)c1 [Example 724]
- Ki [1]: < 500 nM
- Ki [2]: < 500 nM

Structure (SMILES): CS(=O)(=O)Nc1cccc(/C=C2\c3ccc(Cl)cc3COc3ccccc32)c1 [Example 725]
- Ki [1]: < 500 nM
- Ki [2]: < 500 nM

Structure (SMILES): CS(=O)(=O)Nc1cccc(/C=C2/c3ccc(Cl)cc3COc3ccccc32)c1 [Example 726]
- Ki [1]: < 500 nM
- Ki [2]: < 500 nM

Structure (SMILES): CS(=O)(=O)Nc1cccc(/C=C2\c3cc(Cl)ccc3COc3ccccc32)c1 [Example 727]
- Ki [1]: < 500 nM
- Ki [2]: < 500 nM

Structure (SMILES): CS(=O)(=O)Nc1cccc(/C=C2/c3cc(Cl)ccc3COc3ccccc32)c1 [Example 728]
- Ki [1]: < 500 nM
- Ki [2]: < 500 nM

Structure (SMILES): CS(=O)(=O)Nc1cccc(/C=C2/c3cc(F)ccc3COc3ccccc32)c1 [Example 729]
- Ki [1]: < 500 nM
- Ki [2]: < 500 nM

Structure (SMILES): CS(=O)(=O)Nc1cccc(/C=C2\c3cc(F)ccc3COc3ccccc32)c1 [Example 730]
- Ki [1]: < 500 nM
- Ki [2]: < 500 nM

Structure (SMILES): CS(=O)(=O)Nc1cccc(/C=C2/c3ccccc3OCc3c(F)cccc32)c1 [Example 731]
- Ki [1]: < 500 nM
- Ki [2]: < 500 nM

Structure (SMILES): CS(=O)(=O)Nc1cccc(/C=C2\c3ccccc3OCc3c(F)cccc32)c1 [Example 732]
- Ki [1]: < 500 nM
- Ki [2]: < 500 nM

Structure (SMILES): COc1cccc2c1COc1ccccc1[C@H]2Cc1cccc(NS(C)(=O)=O)c1 [Example 733]
- Ki [1]: < 500 nM
- Ki [2]: < 500 nM

Structure (SMILES): COc1ccc2c(c1)COc1ccccc1[C@H]2Cc1cccc(NS(C)(=O)=O)c1 [Example 734]
- Ki [1]: < 500 nM
- Ki [2]: < 500 nM

Structure (SMILES): COc1ccc2c(c1)COc1cc(F)ccc1/C2=C\c1cccc(NS(C)(=O)=O)c1 [Example 735]
- Ki [1]: < 500 nM
- Ki [2]: < 500 nM

Structure (SMILES): COc1ccc2c(c1)COc1cc(F)ccc1/C2=C/c1cccc(NS(C)(=O)=O)c1 [Example 736]
- Ki [1]: < 500 nM
- Ki [2]: < 500 nM

Structure (SMILES): COc1cccc2c1[C@H](Cc1cccc(NS(C)(=O)=O)c1)c1ccccc1OC2 [Example 737]
- Ki [1]: < 500 nM
- Ki [2]: < 500 nM

Structure (SMILES): COc1ccc2c(c1OC)CSc1ccccc1/C2=C/c1cccc(NS(=O)(=O)c2ccccc2)c1 [Example 738]
- Ki [1]: < 500 nM
- Ki [2]: < 500 nM

Structure (SMILES): O=S(=O)(Nc1cccc(/C=C2\c3ccccc3CSc3ccccc32)c1)c1ccccc1 [Example 739]
- Ki [1]: < 500 nM
- Ki [2]: < 500 nM

Structure (SMILES): Cc1ccc2c(c1)CSc1ccccc1C2=Cc1cccc(NS(C)(=O)=O)c1 [Example 740]
- Ki [1]: < 500 nM
- Ki [2]: < 500 nM

Structure (SMILES): CS(=O)(=O)Nc1cccc(/C=C2/c3ccccc3CSc3cc(Cl)ccc32)c1 [Example 741]
- Ki [1]: < 500 nM
- Ki [2]: < 500 nM

Structure (SMILES): CS(=O)(=O)Nc1cccc(/C=C2\c3ccccc3CSc3cc(Cl)ccc32)c1 [Example 742]
- Ki [1]: < 500 nM
- Ki [2]: < 500 nM

Structure (SMILES): Cc1ccc2c(c1)CSc1ccccc1/C2=C\c1cccc(NS(C)(=O)=O)c1 [Example 743]
- Ki [1]: < 500 nM
- Ki [2]: < 500 nM

Structure (SMILES): Cc1ccc2c(c1)CSc1ccccc1/C2=C/c1cccc(NS(C)(=O)=O)c1 [Example 744]
- Ki [1]: < 500 nM
- Ki [2]: < 500 nM

Structure (SMILES): CS(=O)(=O)Nc1cccc(/C=C2/c3ccccc3CSc3cc(F)ccc32)c1 [Example 745]
- Ki [1]: < 500 nM
- Ki [2]: < 500 nM
